pIC50: −log10 of the molar value. Like-named read-outs stand apart in the source and are kept apart here.
Assays:
acetylcholinesterase = acetylcholinesterase (Electrophorus electricus (Electric eel) (Gymnotus electricus), UniProt O42275); test: biochemical
[1] = system: primary cortical neuron cells; conditions: for Relative neuron activity (average): 24 h incubation; for Toxicity to primary neurons (in words): concentrations tested 0.01, 0.1 and 1 μM, 24 h
[2] = system: tau protein phosphorylation; type: cell-based; conditions: Western blot, 24 h incubation
L-type Ca2+ channel [3] = test: Blocking of L-type Ca2+ channel by patch clamp, calcium current in rat dorsal root ganglion cells; type: cell-based; conditions: whole cell patch clamp
L-type Ca2+ channel [4] = test: Blocking of L-type Ca2+ channel by high content screening analyzer, KCl-induced calcium ion influx in SH-SY5Y cells (Fluo-4-AM)
[5] = system: primary cortical neuron cells; test: Effect of the compounds on the morphology of neurons (microscopy); conditions: 0.01 to 1 μM, 24 h

acetylcholinesterase, sequence (O42275 whole entry, looked up): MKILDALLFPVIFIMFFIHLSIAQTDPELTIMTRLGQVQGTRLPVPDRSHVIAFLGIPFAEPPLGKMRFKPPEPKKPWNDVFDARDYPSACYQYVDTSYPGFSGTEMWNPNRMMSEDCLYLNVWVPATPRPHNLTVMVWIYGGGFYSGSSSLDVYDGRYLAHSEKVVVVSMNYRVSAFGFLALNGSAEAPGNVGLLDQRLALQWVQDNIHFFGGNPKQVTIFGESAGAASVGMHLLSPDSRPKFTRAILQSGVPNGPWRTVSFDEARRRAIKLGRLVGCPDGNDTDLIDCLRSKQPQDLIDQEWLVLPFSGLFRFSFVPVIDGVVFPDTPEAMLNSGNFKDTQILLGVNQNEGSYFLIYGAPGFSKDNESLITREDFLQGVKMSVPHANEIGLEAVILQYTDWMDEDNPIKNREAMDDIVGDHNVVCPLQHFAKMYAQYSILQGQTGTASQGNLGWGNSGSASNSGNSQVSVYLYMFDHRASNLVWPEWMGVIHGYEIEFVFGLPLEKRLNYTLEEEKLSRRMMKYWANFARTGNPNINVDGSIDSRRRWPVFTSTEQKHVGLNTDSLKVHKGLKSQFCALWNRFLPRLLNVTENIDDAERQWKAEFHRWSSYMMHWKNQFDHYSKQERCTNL

Compound | pIC50 (acetylcholinesterase) | Relative neuron activity (average) ([1]; 0.01 μM) [%] | Relative neuron activity (average) ([1]; 0.1 μM) [%] | Relative neuron activity (average) ([1]; 1 μM) [%] | Toxicity to primary neurons (in words) [1] | Intracellular tau protein phosphorylation of neurons [2] | Inhibition rate of L-type Ca2+ channel current (L-type Ca2+ channel [3]; 100 nmol/L compound) [%] | Inhibition rate of L-type Ca2+ channel current (L-type Ca2+ channel [3]; 1000 nmol/L compound) [%] | Inhibition rate of KCl-induced calcium ion influx (L-type Ca2+ channel [4]; 10 μM compound) [%] | Inhibition rate of KCl-induced calcium ion influx (L-type Ca2+ channel [4]; 50 μM compound) [%] | Effect on the morphology of neurons [5]
COC(=O)C1=C(C)Nc2nc3c(c(N)c2C1c1cccc([N+](=O)[O-])c1)CCCC3C (stereo not shown) [Compound S15, 5-amino-4-(3-nitrophenyl)-2,9-dimethyl-1,4,6,7,8,9-hexahydrobenzo[b][1,8]naphthyridine-3-carboxylic acid methyl ester] | 6.14 | 111.9 | 105.8 | 65.9 | minor toxicity | reduced | – | – | – | – | –
COC(=O)C1=C(C)Nc2nc3c(c(N)c2C1c1cccc(Cl)c1Cl)CC(C)CC3 (stereo not shown) [Compound S27, 5-amino-4-(2,3-dichlorophenyl)-2,7-dimethyl-1,4,6,7,8,9-hexahydrobenzo[b][1,8]nap hthyridine-3-carboxylic acid methyl ester] | 6.75 | 123.7 | 102.9 | 43.0 | – | – | 39.68 | 65.54 | – | – | –
CCOC(=O)C1=C(C)Nc2nc3c(c(N)c2C1c1cccc(Cl)c1)CC(C)(C)CC3 (stereo not shown) [Compound S6, 5-amino-4-(3-chlorphenyl)-2,7,7-trimethyl-1,4,6,7,8,9-hexahydrobenzo[b][6,8]naphth yridine-3-carboxylic acid ethyl ester] | 6.05 | 107.1 | 105.3 | 99.0 | no significant toxicity | reduced | – | – | 11.30 | 95.51 | –
CC1=C(C(=O)OC(C)C)C(c2ccccc2Cl)c2c(nc3c(c2N)CC(C)(C)CC3)N1 (stereo not shown) [Compound S32, 5-amino-2,7,7-trimethyl-4-(2-chlorphenyl)-1,4,6,7,8,9-hexahydrobenzo[b][1,8]naphth yridine-3-carboxylic acid isopropyl ester] | 5.16 | 115.5 | 106.5 | 98.6 | no significant toxicity | reduced | – | – | 29.49 | 91.10 | –
CCOC(=O)C1=C(C)Nc2nc3c(c(N)c2C1c1ccccc1Cl)CC(C)(C)CC3 (stereo not shown) [Compound S1, 5-amino-4-(2-chlorphenyl)-2,7,7-trimethyl-1,4,6,7,8,9-hexahydrobenzo[b][1,8]naphthyridine-3-carboxylic acid ethyl ester] | 6.11 | 110.6 | 113.9 | 97.9 | no significant toxicity | reduced | 38.14 | 61.76 | 29.29 | 63.60 | no effect on the morphology of neurons
CC1=C(C(=O)OC(C)C)C(c2cccc(F)c2)c2c(nc3c(c2N)CC(C)(C)CC3)N1 (stereo not shown) [Compound S3, 5-amino-4-(3-fluorophenyl)-2,7,7-trimethyl-1,4,6,7,8,9-hexahydrobenzo[b][1,8]napht hyridine-3-carboxylic acid isopropyl ester] | 5.95 | 107.7 | 102.4 | 98.8 | no significant toxicity | reduced | – | – | 81.33 | 86.82 | –
CC1=C(C(=O)OC(C)C)C(c2ccccc2F)c2c(nc3c(c2N)CC(C)(C)CC3)N1 (stereo not shown) [Compound S8, 5-amino-4-(2-fluorophenyl)-2,7,7-trimethyl-1,4,6,7,8,9-hexahydrobenzo[b][1,8]napht hyridine-3-carboxylic acid isopropyl ester] | 6.12 | 114.7 | 101.7 | 97.7 | no significant toxicity | reduced | – | – | 61.63 | 93.28 | –

— US9284330B2 (priority 2011, dated 2016)
